These results are taken from publication PMC5298231, “The Malaria Parasite's Lactate Transporter PfFNT Is the Target of Antiplasmodial Compounds Identified in Whole Cell Phenotypic Screens” (PLoS Pathogens, 2017).

Peptide text beside a SMILES is read from it.

This assay deals with erythrocytes infected with 3D7 trophozoites. Format: cell-based, Plasmodium falciparum. The note with it: sheet Ratio; for Ratio of metabolite abundance, Exp1_1hr: Exp1, 1hr; for Ratio of metabolite abundance, Exp1_3hr: Exp1, 3hr; for Ratio of metabolite abundance, Exp1_6hr: Exp1, 6hr; for Ratio of metabolite abundance, Exp2_1hr: Exp2, 1hr; for Ratio of metabolite abundance, Exp2_3hr: Exp2, 3hr; for Ratio of metabolite abundance, Exp2_6hr: Exp2, 6hr; for Ratio of metabolite abundance, Exp3_1hr: Exp3, 1hr; for Ratio of metabolite abundance, Exp3_3hr: Exp3, 3hr; for Ratio of metabolite abundance, Exp3_6hr: Exp3, 6hr.

For the compound `NC(=O)C1=CN([C@@H]2O[C@H](COP(=O)(O)OP(=O)(O)OC[C@H]3O[C@@H](n4cnc5c(N)ncnc54)[C@H](O)[C@@H]3O)[C@@H](O)[C@H]2O)C=CC1` [NADH], the “Ratio of metabolite abundance, Exp1_1hr” value is 0.4095; the “Ratio of metabolite abundance, Exp1_3hr” value is recorded as 0.2777; the “Ratio of metabolite abundance, Exp1_6hr” value is listed as 0.1491; the “Ratio of metabolite abundance, Exp2_1hr” value stood at 0.4801. The “Ratio of metabolite abundance, Exp2_3hr” value is 0.5784; the “Ratio of metabolite abundance, Exp2_6hr” value is listed as 0.1509; the “Ratio of metabolite abundance, Exp3_1hr” value is given as 0.301; the “Ratio of metabolite abundance, Exp3_3hr” value was 0.1742. In addition, the “Ratio of metabolite abundance, Exp3_6hr” value was determined as 0.1364.

Take `NC(=O)c1ccc[n+]([C@@H]2O[C@H](COP(=O)([O-])OP(=O)(O)OC[C@H]3O[C@@H](n4cnc5c(N)ncnc54)[C@H](OP(=O)(O)O)[C@@H]3O)[C@@H](O)[C@H]2O)c1` [NADP+]: the “Ratio of metabolite abundance, Exp1_1hr” value was found to be 0.7131; the “Ratio of metabolite abundance, Exp1_3hr” value was found to be 0.6937; the “Ratio of metabolite abundance, Exp1_6hr” value was 0.7662; the “Ratio of metabolite abundance, Exp2_1hr” value was found to be 1.042. Also, the “Ratio of metabolite abundance, Exp2_3hr” value amounted to 0.9729; the “Ratio of metabolite abundance, Exp2_6hr” value is on record as 0.8073; the “Ratio of metabolite abundance, Exp3_1hr” value amounted to 0.7811; the “Ratio of metabolite abundance, Exp3_3hr” value came to 0.7388. For the same compound, the “Ratio of metabolite abundance, Exp3_6hr” value came out at 0.8166.

Take `O=C(O)c1cc(=O)[nH]c(=O)[nH]1` [Orotate]: the “Ratio of metabolite abundance, Exp1_1hr” value was found to be 0.5025; the “Ratio of metabolite abundance, Exp1_3hr” value amounted to 0.4692; the “Ratio of metabolite abundance, Exp1_6hr” value was 0.3315; the “Ratio of metabolite abundance, Exp2_1hr” value was determined as 0.4622. Also, the “Ratio of metabolite abundance, Exp2_3hr” value worked out at 0.4131; the “Ratio of metabolite abundance, Exp2_6hr” value came out at 0.4313; the “Ratio of metabolite abundance, Exp3_1hr” value was 0.3435; the “Ratio of metabolite abundance, Exp3_3hr” value turned out to be 0.2448. The “Ratio of metabolite abundance, Exp3_6hr” value is listed as 0.2332.

`C[C@H](NC(=O)[C@@H]1CCCN1)C(=O)N[C@@H](CCC(=O)O)C(=O)N[C@@H](Cc1ccccc1)C(=O)O` [PAEF] (H-PAEF-OH): the “Ratio of metabolite abundance, Exp1_1hr” value is recorded as 0.6152; the “Ratio of metabolite abundance, Exp1_3hr” value was determined as 0.1924; the “Ratio of metabolite abundance, Exp1_6hr” value came out at 1.448; the “Ratio of metabolite abundance, Exp2_1hr” value is recorded as 0.9598. The “Ratio of metabolite abundance, Exp2_3hr” value stood at 0.5962; the “Ratio of metabolite abundance, Exp2_6hr” value stood at 1.961; the “Ratio of metabolite abundance, Exp3_1hr” value amounted to 0.6833; the “Ratio of metabolite abundance, Exp3_3hr” value is on record as 0.575. Besides, the “Ratio of metabolite abundance, Exp3_6hr” value came out at 1.883.

Turning to `CC(C)[C@H](NC(=O)[C@H](C)NC(=O)[C@@H]1CCCN1)C(=O)N[C@@H](Cc1c[nH]cn1)C(=O)O` [PAVH], the “Ratio of metabolite abundance, Exp1_1hr” value was determined as 0.3897; the “Ratio of metabolite abundance, Exp1_3hr” value worked out at 0.1614; the “Ratio of metabolite abundance, Exp1_6hr” value is listed as 0.8308; the “Ratio of metabolite abundance, Exp2_1hr” value is recorded as 0.6106. Further, the “Ratio of metabolite abundance, Exp2_3hr” value came out at 0.3696; the “Ratio of metabolite abundance, Exp2_6hr” value is 0.9246; the “Ratio of metabolite abundance, Exp3_1hr” value came out at 0.514; the “Ratio of metabolite abundance, Exp3_3hr” value worked out at 0.3038. The “Ratio of metabolite abundance, Exp3_6hr” value worked out at 1.108.

As for `CC(C)[C@H](NC(=O)[C@H](C)NC(=O)[C@H](CC(=O)O)NC(=O)[C@@H]1CCCN1)C(=O)O` [PDAV] (H-PDAV-OH), the “Ratio of metabolite abundance, Exp1_1hr” value came to 1.025; the “Ratio of metabolite abundance, Exp1_3hr” value was 1.041; the “Ratio of metabolite abundance, Exp1_6hr” value was 2.029; the “Ratio of metabolite abundance, Exp2_1hr” value amounted to 1.45. For the same compound, the “Ratio of metabolite abundance, Exp2_3hr” value came to 1.498; the “Ratio of metabolite abundance, Exp2_6hr” value is recorded as 2.552; the “Ratio of metabolite abundance, Exp3_1hr” value is 1.376; the “Ratio of metabolite abundance, Exp3_3hr” value is recorded as 1.38. The “Ratio of metabolite abundance, Exp3_6hr” value was 2.341.

`O=C(O)C[C@H](NC(=O)[C@@H]1CCCN1)C(=O)O` [PD] (H-Pro-Asp-OH): the “Ratio of metabolite abundance, Exp1_1hr” value was found to be 1.093; the “Ratio of metabolite abundance, Exp1_3hr” value was 0.9772; the “Ratio of metabolite abundance, Exp1_6hr” value was 1.538; the “Ratio of metabolite abundance, Exp2_1hr” value is 1.264. For the same compound, the “Ratio of metabolite abundance, Exp2_3hr” value turned out to be 1.209; the “Ratio of metabolite abundance, Exp2_6hr” value worked out at 2.9187; the “Ratio of metabolite abundance, Exp3_1hr” value came out at 1.287; the “Ratio of metabolite abundance, Exp3_3hr” value worked out at 1.3146. Also, the “Ratio of metabolite abundance, Exp3_6hr” value is listed as 2.682.

Regarding `O=C(O)CC[C@H](NC(=O)[C@H](CCC(=O)O)NC(=O)[C@@H]1CCCN1)C(=O)O` [PEE] (H-Pro-Glu-Glu-OH), the “Ratio of metabolite abundance, Exp1_1hr” value was 1.088; the “Ratio of metabolite abundance, Exp1_3hr” value was 0.6949; the “Ratio of metabolite abundance, Exp1_6hr” value came to 2.228; the “Ratio of metabolite abundance, Exp2_1hr” value is on record as 1.338. The “Ratio of metabolite abundance, Exp2_3hr” value is listed as 0.8845; the “Ratio of metabolite abundance, Exp2_6hr” value came to 1.822; the “Ratio of metabolite abundance, Exp3_1hr” value amounted to 1.136; the “Ratio of metabolite abundance, Exp3_3hr” value is 1.044. For the same compound, the “Ratio of metabolite abundance, Exp3_6hr” value came out at 2.15.

On to `O=C(O)CC[C@H](NC(=O)[C@@H]1CCCN1)C(=O)O` [PE] (H-Pro-Glu-OH), for which the “Ratio of metabolite abundance, Exp1_1hr” value is on record as 2.339; the “Ratio of metabolite abundance, Exp1_3hr” value is 1.989; the “Ratio of metabolite abundance, Exp1_6hr” value came to 3.207; the “Ratio of metabolite abundance, Exp2_1hr” value was found to be 2.25. The “Ratio of metabolite abundance, Exp2_3hr” value stood at 1.648; the “Ratio of metabolite abundance, Exp2_6hr” value was found to be 3.078; the “Ratio of metabolite abundance, Exp3_1hr” value is 2.352; the “Ratio of metabolite abundance, Exp3_3hr” value was 2.042. The “Ratio of metabolite abundance, Exp3_6hr” value was found to be 3.469.

Turning to `O=C(O)[C@H](Cc1ccccc1)NC(=O)[C@H](Cc1cnc[nH]1)NC(=O)[C@@H]1CCCN1` [PHF] (H-Pro-His-Phe-OH), the “Ratio of metabolite abundance, Exp1_1hr” value worked out at 1.822; the “Ratio of metabolite abundance, Exp1_3hr” value is reported as 0.7039; the “Ratio of metabolite abundance, Exp1_6hr” value is on record as 1.872; the “Ratio of metabolite abundance, Exp2_1hr” value is given as 2.081. Moreover, the “Ratio of metabolite abundance, Exp2_3hr” value stood at 1.353; the “Ratio of metabolite abundance, Exp2_6hr” value was 2.7014; the “Ratio of metabolite abundance, Exp3_1hr” value is listed as 2.437; the “Ratio of metabolite abundance, Exp3_3hr” value worked out at 1.168. Also, the “Ratio of metabolite abundance, Exp3_6hr” value turned out to be 1.525.

On to `CC(C)[C@H](NC(=O)[C@@H]1CCCN1C(=O)[C@@H]1CCCN1)C(=O)N[C@@H](CCC(N)=O)C(=O)O` [PPVQ] (H-PPVQ-OH), for which the “Ratio of metabolite abundance, Exp1_1hr” value is recorded as 1.0595; the “Ratio of metabolite abundance, Exp1_3hr” value is reported as 0.6401; the “Ratio of metabolite abundance, Exp1_6hr” value is recorded as 0.763; the “Ratio of metabolite abundance, Exp2_1hr” value is 1.014. Further, the “Ratio of metabolite abundance, Exp2_3hr” value is listed as 0.8051; the “Ratio of metabolite abundance, Exp2_6hr” value amounted to 0.8204; the “Ratio of metabolite abundance, Exp3_1hr” value was found to be 0.973; the “Ratio of metabolite abundance, Exp3_3hr” value turned out to be 0.9388. Moreover, the “Ratio of metabolite abundance, Exp3_6hr” value worked out at 0.9472.
